Reference: ChEMBL document CHEMBL1134068, “Thiazole analogues of the NSAID indomethacin as selective COX-2 inhibitors” (Bioorg Med Chem Lett, 2001)

Key:
[1] = molecular target: T1, Prostaglandin G/H synthase 1 (Homo sapiens, UniProt P23219); assay: Percent inhibition at 10 uM concentration against human recombinant Prostaglandin G/H synthase 1 cloned and expressed in baculovirus
[2] = molecular target: T2, Prostaglandin G/H synthase 2 (Homo sapiens) (UniProt P35354); assay: Percent inhibition at 100 nM concentration against human recombinant Prostaglandin G/H synthase 2 cloned and expressed in baculovirus (Sf9)
T2 sequence (whole entry): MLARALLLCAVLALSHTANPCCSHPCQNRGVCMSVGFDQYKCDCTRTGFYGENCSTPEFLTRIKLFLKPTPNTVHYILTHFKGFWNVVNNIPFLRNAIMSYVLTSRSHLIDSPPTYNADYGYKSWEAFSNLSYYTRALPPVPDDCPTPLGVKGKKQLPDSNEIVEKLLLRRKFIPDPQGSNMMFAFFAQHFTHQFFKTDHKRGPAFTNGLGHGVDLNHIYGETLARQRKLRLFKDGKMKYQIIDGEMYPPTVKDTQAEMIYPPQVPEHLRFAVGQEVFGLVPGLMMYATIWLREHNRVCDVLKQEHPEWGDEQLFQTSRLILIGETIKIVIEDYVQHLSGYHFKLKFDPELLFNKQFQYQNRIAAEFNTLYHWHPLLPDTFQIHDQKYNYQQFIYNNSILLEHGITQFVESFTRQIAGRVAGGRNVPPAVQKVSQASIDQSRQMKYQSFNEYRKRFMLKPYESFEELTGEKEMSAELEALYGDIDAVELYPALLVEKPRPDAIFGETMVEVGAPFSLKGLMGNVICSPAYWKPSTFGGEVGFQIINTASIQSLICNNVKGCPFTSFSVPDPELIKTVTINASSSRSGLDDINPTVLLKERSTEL

[3] = molecular target: T3, Prostaglandin G/H synthase 2 (Homo sapiens, UniProt P35354); assay: biochemical
T3 sequence (P35354 whole entry): T2 sequence (whole entry)
Description: Inhibitory concentration against human recombinant Prostaglandin G/H synthase 2 cloned and expressed in baculovirus (Sf9)

[4] = molecular target: T1, Prostaglandin G/H synthase 1; assay: Percent inhibition at 10 uM concentration against human recombinant Prostaglandin G/H synthase 1 cloned and expressed in baculovirus (Sf9)
[5] = molecular target: T1, Prostaglandin G/H synthase 1; assay: Inhibitory concentration against human recombinant Prostaglandin G/H synthase 1 cloned and expressed in baculovirus (Sf9)

T1 sequence (P23219 whole entry): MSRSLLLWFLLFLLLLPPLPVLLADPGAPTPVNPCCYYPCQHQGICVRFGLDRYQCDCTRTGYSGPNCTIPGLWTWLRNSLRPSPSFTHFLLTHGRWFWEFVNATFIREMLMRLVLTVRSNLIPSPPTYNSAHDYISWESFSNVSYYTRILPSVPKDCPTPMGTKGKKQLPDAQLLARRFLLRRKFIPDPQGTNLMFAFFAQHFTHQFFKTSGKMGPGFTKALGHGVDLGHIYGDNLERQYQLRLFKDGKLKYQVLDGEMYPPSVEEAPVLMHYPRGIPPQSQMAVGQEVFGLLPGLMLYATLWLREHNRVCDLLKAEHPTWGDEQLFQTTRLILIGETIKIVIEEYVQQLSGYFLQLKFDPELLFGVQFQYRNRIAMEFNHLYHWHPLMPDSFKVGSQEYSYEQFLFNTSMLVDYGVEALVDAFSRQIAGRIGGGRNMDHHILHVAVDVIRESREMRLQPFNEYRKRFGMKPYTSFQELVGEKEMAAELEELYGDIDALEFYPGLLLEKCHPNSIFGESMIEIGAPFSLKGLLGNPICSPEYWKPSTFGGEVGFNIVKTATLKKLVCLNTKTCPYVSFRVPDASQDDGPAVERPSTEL

Structure (SMILES): Cc1c(Cc2nc(-c3ccc(Br)cc3)cs2)c2cc(F)ccc2n1C(=O)c1ccc(Br)cc1
- inhibition [1]: 0%
- inhibition [2]: 25%

Structure (SMILES): COc1ccc2c(c1)c(Cc1csc(-c3ccccc3Cl)n1)c(C)n2C(=O)c1ccc(Cl)cc1
- inhibition [1]: 24%
- inhibition [2]: 42%

Structure (SMILES): COc1ccc2c(c1)c(Cc1nc(-c3ccc([N+](=O)[O-])cc3)cs1)c(C)n2C(=O)c1ccc(Br)cc1
- inhibition [1]: 9%
- IC50 [3]: 0.007 µM

Structure (SMILES): Cc1c(Cc2nc(-c3ccc(Cl)cc3)cs2)c2cc(Br)ccc2n1C(=O)c1ccc(Br)cc1
- inhibition [1]: 4%
- inhibition [2]: 9%

Structure (SMILES): Cc1c(Cc2nc(-c3ccc([N+](=O)[O-])cc3)cs2)c2cc(F)ccc2n1C(=O)c1ccc(Br)cc1
- inhibition [1]: 1%
- inhibition [2]: 40%

Structure (SMILES): COc1ccc2c(c1)c(Cc1nc(-c3ccc(S(C)(=O)=O)cc3)cs1)c(C)n2C(=O)c1ccc(Cl)cc1
- inhibition [1]: 15%
- inhibition [2]: 33%

Structure (SMILES): COc1ccc2c(c1)c(Cc1nc(C(C)C)cs1)c(C)n2C(=O)c1ccc(Cl)cc1
- inhibition [1]: 36%
- inhibition [2]: 1%

Structure (SMILES): COc1ccc2c(c1)c(Cc1nc(-c3ccc(F)cc3F)cs1)c(C)n2C(=O)c1ccc(Cl)cc1
- inhibition [1]: 12%
- inhibition [2]: 75%

Structure (SMILES): COc1ccc2c(c1)c(Cc1nc(C(=O)O)cs1)c(C)n2C(=O)c1ccc(Cl)cc1
- inhibition [1]: 6%
- inhibition [2]: 2%

Structure (SMILES): COc1ccc2c(c1)c(Cc1nc(-c3ccc(F)cc3)cs1)c(C)n2C(=O)c1ccc(Cl)cc1
- inhibition [4]: 28%

Structure (SMILES): COc1ccc2c(c1)c(Cc1csc(-c3cccnc3)n1)c(C)n2C(=O)c1ccc(Cl)cc1
- inhibition [1]: 47%
- inhibition [2]: 20%

Structure (SMILES): COc1ccc2c(c1)c(Cc1nc(-c3ccc4ccccc4c3)cs1)c(C)n2C(=O)c1ccc(Cl)cc1
- inhibition [1]: 11%

Structure (SMILES): COc1ccc2c(c1)c(Cc1csc(NC(=O)CN)n1)c(C)n2C(=O)c1ccc(Cl)cc1
- inhibition [1]: 27%
- inhibition [2]: 4%

Structure (SMILES): COc1ccc2c(c1)c(Cc1csc(N)n1)c(C)n2C(=O)c1ccc(Cl)cc1
- IC50 [3]: 0.39 µM
- IC50 [5]: 15500 µM

Structure (SMILES): COc1ccc2c(c1)c(Cc1nc(-c3ccc(Cl)cc3)cs1)c(C)n2C(=O)c1ccc(Br)cc1
- inhibition [1]: 2%
- IC50 [3]: 0.007 µM

Structure (SMILES): COc1ccc2c(c1)c(Cc1nc(-c3cccc([N+](=O)[O-])c3)cs1)c(C)n2C(=O)c1ccc(Cl)cc1
- inhibition [1]: 35%
- inhibition [2]: 85%

Structure (SMILES): COc1ccc2c(c1)c(Cc1csc(-c3ccncc3)n1)c(C)n2C(=O)c1ccc(Cl)cc1
- inhibition [1]: 57%
- inhibition [2]: 75%

Structure (SMILES): Cc1c(Cc2nc(-c3ccc([N+](=O)[O-])cc3)cs2)c2cc(Br)ccc2n1C(=O)c1ccc(Br)cc1
- inhibition [1]: 1%
- inhibition [2]: 7%

Structure (SMILES): COc1ccc2c(c1)c(Cc1nc(-c3ccc([N+](=O)[O-])cc3)cs1)c(C)n2C(=O)c1ccc(Cl)cc1
- inhibition [4]: 17%

Structure (SMILES): Cc1c(Cc2nc(-c3ccc(Br)cc3)cs2)c2cc(Br)ccc2n1C(=O)c1ccc(Br)cc1
- inhibition [1]: 13%
- inhibition [2]: 7%

Structure (SMILES): COc1ccc2c(c1)c(Cc1nc(-c3cccc(Br)c3)cs1)c(C)n2C(=O)c1ccc(Cl)cc1
- inhibition [1]: 18%

Structure (SMILES): COc1ccc2c(c1)c(Cc1csc(-c3ccc(Cl)cc3)n1)c(C)n2C(=O)c1ccc(Cl)cc1
- inhibition [1]: 18%
- inhibition [2]: 16%

Structure (SMILES): COc1ccc2c(c1)c(Cc1nc(-c3ccc(Br)cc3)cs1)c(C)n2C(=O)c1ccc(Cl)cc1
- inhibition [4]: 27%

Structure (SMILES): COc1ccc2c(c1)c(Cc1nc(C34C[C@H]5C[C@@H](C3)C[C@@H](C4)C5)cs1)c(C)n2C(=O)c1ccc(Cl)cc1
- inhibition [1]: 13%
- inhibition [2]: 6%

Structure (SMILES): COc1ccc2c(c1)c(Cc1nc(-c3ccc(C(=O)O)cc3)cs1)c(C)n2C(=O)c1ccc(Br)cc1
- inhibition [1]: 40%
- inhibition [2]: 10%

Structure (SMILES): Cc1c(Cc2nc(-c3ccc(Cl)cc3)cs2)c2cc(F)ccc2n1C(=O)c1ccc(Br)cc1
- inhibition [1]: 7%
- inhibition [2]: 37%

Structure (SMILES): CCOC(=O)c1csc(Cc2c(C)n(C(=O)c3ccc(Cl)cc3)c3ccc(OC)cc23)n1
- inhibition [1]: 1%
- inhibition [2]: 40%

Structure (SMILES): COc1ccc2c(c1)c(Cc1nc(-c3ccc(C(=O)O)cc3)cs1)c(C)n2C(=O)c1ccc(Cl)cc1
- inhibition [1]: 35%
- IC50 [3]: 0.12 µM

Structure (SMILES): CCN(CC)c1ccc(-c2csc(Cc3c(C)n(C(=O)c4ccc(Cl)cc4)c4ccc(OC)cc34)n2)cc1
- inhibition [1]: 23%
- inhibition [2]: 36%

Structure (SMILES): COc1ccc2c(c1)c(Cc1nc(-c3ccc(-c4ccccc4)cc3)cs1)c(C)n2C(=O)c1ccc(Cl)cc1
- inhibition [4]: 13%
- inhibition [2]: 21%

Structure (SMILES): COc1ccc2c(c1)c(Cc1nc(-c3ccc(Br)cc3)cs1)c(C)n2C(=O)c1ccc(Br)cc1
- inhibition [1]: 3%
- IC50 [3]: 0.03 µM

Structure (SMILES): COc1ccc2c(c1)c(Cc1nc(-c3ccc(Cl)cc3)cs1)c(C)n2C(=O)c1ccc(Cl)cc1
- inhibition [4]: 16%

Structure (SMILES): COc1ccc2c(c1)c(Cc1nc(-c3csc4ccccc34)cs1)c(C)n2C(=O)c1ccc(Cl)cc1
- inhibition [1]: 20%

Structure (SMILES): COc1ccc2c(c1)c(Cc1csc(NC(=O)c3ccncc3)n1)c(C)n2C(=O)c1ccc(Cl)cc1
- inhibition [1]: 0%
- inhibition [2]: 45%
